Test results: US20260265538A1, “Aqueous Industrial Product Stabilized Against Microbial Contamination” (Thor GmbH, priority 2023, published 2026)

System: Bacteria mixture 1 (Pseudomonas genus)
Experiment: Repetitive stress test of paints with bacteria mixture 1, semiquantitative evaluation (examples 2 and 3)
Format: cell-based
Conditions: table 3
Source text: Paints 1 to 3 were mixed and homogenized with various concentrations of the guanidinium salts to be tested.
The batches obtained of the paint thus prepared were inoculated repeatedly with a mixture of different wild-type bacterial strains that are of practical relevance with regard to contamination. These bacteria had previously been isolated from commercial emulsion paints containing conventional preservatives (bacteria mixture 1, Pseudomonas genus), which are microbially contaminated in practice, and commercial so-called preservative-free alkaline emulsion paints (bacteria mixture 2, alkaliphilic bacteria of the Nesterenkonia & Alkalibacterium genus), which are microbially contaminated in practice.
• Pseudomonas spp. (Pseudomonas oleovorans group) DSM 33933 • Pseudomonas aeruginosa DSM 33935 • Pseudomonas oleovorans DSM 33936 • Pseudomonas putida DSM 33937 • Pseudomonas aeruginosa DSM 33938
The inoculum was added to the respective sample in each inoculation at 2% (v/w) as a fresh cell suspension in a physiological saline solution (0.9% NaCl). The cell count of the added inoculum in example 1 was 10^5/ml, in examples 2 to 5 10^9/ml, and in example 6 10^6/ml, each in equal portions consisting of the individual bacterial strains. The cell suspension was produced by growing the individual bacteria at 30° C. for 24 h in liquid culture on a shaker. The medium used to grow the bacteria from bacteria mixture 1 was Müller-Hinton liquid medium. Bacteria from bacteria mixture 2 were grown in Müller-Hinton liquid medium that had been adjusted to pH 9.5-9.7 with an alkaline buffer solution beforehand. After growing, the individual liquid cultures were centrifuged, and the cells were resuspended in physiological saline solution. In order to adjust the mixture to the desired cell count, the individual bacteria suspensions, if necessary, were diluted accordingly before being combined with saline solution. The cell count of the inoculum was determined in each case by chamber counting.
In examples 2 to 6, what is called a repetitive stress test with bacteria was conducted by inoculating the samples at particular time intervals repeatedly with a bacteria suspension having a cell count of 10^9/ml (2% v/w) and monitoring the evolution of the bacteria by a semiquantitative evaluation method. After each inoculation, the samples were incubated at 30° C. for 6 days (bacteria mixture 1 and 3) or 7 and 14 days (bacteria mixture 2), and after these periods bacterial infestation was evaluated semiquantitatively in each case. For this purpose, an aliquot was taken from each sample after homogenization using a sterile plastic inoculation loop (10 μl) and streaked evenly on agar plates (bacteria mixture 1 and 3 on tryptic soy agar, bacteria mixture 2 on DSMZ 31 alkaline nutrient agar). The streaked agar plates were then incubated at 30° C. for 48 h (bacteria mixture 1 and 3) or 5 to 7 days (bacteria mixture 2). After incubation, the bacterial colonies grown on the agar plates were visually evaluated and quantified according to the following scheme:
A total of 3 inoculation cycles was performed in each repetitive stress test.
Inoculation 2% (w/v) with Bacteria Mixture 1, 10^9 CFU/ml
2% (w/v) Inoculation with Bacteria Mixture 1, […]

SMILES: N=C(N)N.N=C(N)N.O=C(O)O [guanidine carbonate]
- Stabilization of the paint against microbial infestation (paint 1, pH of pH 9.4, addition of 0.15% by weight): distinct stabilization
- Stabilization of the paint against microbial infestation (paint 2, pH of pH 9.1, addition of 0.175% by weight): distinct stabilization
